Assay results published in PubChem BioAssay (NCI).
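All cell lines were grown in 96-well plates and treated with compound for 48 hours. The concentration for full growth arrest is given as TGI.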

Assays:
Test in all cases: NCI anticancer screen, dose series, 48 h
[1] = test system: 786-0 renal
[2] = test system: A498 renal
[3] = test system: ACHN renal
[4] = test system: CAKI-1 renal
[5] = test system: HOP-92 NSCLC
[6] = test system: KM20L2 colon
[7] = test system: LXFL 529 NSCLC
[8] = test system: OVCAR-8 ovarian
[9] = test system: SR leukemia
[10] = test system: MDA-MB-435

O=Cc1[nH]c2ccccc2c1Br
TGI [1]: 66.3 µM
TGI [2]: 33.6 µM
TGI [3]: 82.7 µM
TGI [4]: > 100 µM
TGI [5]: 66.8 µM
TGI [6]: 41.5 µM
TGI [7]: 60.6 µM
TGI [8]: 64.4 µM
TGI [9]: 61.1 µM

Cc1cc2c(c(C#N)c1C)NC(=O)C(CC(=O)O)C2=O (stereo unspecified)
TGI [1]: > 100 µM
TGI [2]: > 100 µM
TGI [3]: > 100 µM
TGI [4]: > 100 µM
TGI [5]: > 100 µM
TGI [6]: > 100 µM
TGI [7]: > 100 µM
TGI [8]: > 100 µM

Cc1ccc(C2=Nc3ccccc3NC(=O)C2)cc1
TGI [1]: > 100 µM
TGI [2]: > 100 µM
TGI [3]: > 100 µM
TGI [4]: > 100 µM
TGI [5]: > 100 µM
TGI [6]: > 100 µM
TGI [7]: > 100 µM
TGI [8]: > 100 µM
TGI [9]: > 100 µM

COc1ccc2nc(NC(=O)C(=O)CC(=O)c3ccc(Cl)cc3)sc2c1
TGI [1]: > 100 µM
TGI [2]: > 100 µM
TGI [3]: > 100 µM
TGI [4]: > 100 µM
TGI [5]: > 100 µM
TGI [6]: > 100 µM
TGI [7]: > 100 µM
TGI [8]: > 100 µM
TGI [9]: > 100 µM

C=CCN=C1N=C(CC(=O)OCC)CS1
TGI [1]: > 100 µM
TGI [2]: > 100 µM
TGI [3]: > 100 µM
TGI [4]: > 100 µM
TGI [5]: > 100 µM
TGI [6]: > 100 µM
TGI [7]: > 100 µM
TGI [8]: > 100 µM

CC(=S)NNC(=O)c1ccncc1
TGI [1]: > 100 µM
TGI [2]: > 100 µM
TGI [3]: > 100 µM
TGI [4]: > 100 µM
TGI [5]: > 100 µM
TGI [6]: > 100 µM
TGI [7]: > 100 µM
TGI [8]: > 100 µM
TGI [9]: > 100 µM

CC(=O)Oc1cccc2c1C(=O)C(Br)(Br)CCC2
TGI [1]: 11.4 µM
TGI [2]: 33.4 µM
TGI [3]: 12.8 µM
TGI [4]: 10.7 µM
TGI [5]: 10.4 µM
TGI [6]: 21.7 µM
TGI [7]: 18.7 µM
TGI [10]: 13.4 µM
TGI [8]: 13 µM
TGI [9]: 8.19 µM

CN(C)CCCn1c2c3ccccc3ccc2c2oc(=O)c3ccccc3c21
TGI [1]: 5.54 µM
TGI [2]: 28.6 µM
TGI [3]: 15.7 µM
TGI [4]: 27.6 µM
TGI [5]: 45.7 µM
TGI [6]: 2.78 µM
TGI [7]: 10 µM
TGI [10]: > 20 µM
TGI [8]: 8.75 µM
TGI [9]: 5.56 µM

O=C(O)c1ccc([N+](=O)[O-])c2c(=O)c3ccccc3[nH]c12
TGI [1]: > 100 µM
TGI [2]: > 100 µM
TGI [3]: > 100 µM
TGI [4]: > 100 µM
TGI [5]: > 100 µM
TGI [6]: > 100 µM
TGI [7]: > 100 µM
TGI [8]: > 100 µM
TGI [9]: > 100 µM

CC(C)(C)C(=O)C(c1ccc(-c2cscn2)cc1)c1ccc(-c2cscn2)cc1
TGI [1]: 78.7 µM
TGI [2]: 65.8 µM
TGI [3]: > 100 µM
TGI [4]: > 73.2 µM
TGI [5]: 30 µM
TGI [6]: > 100 µM
TGI [7]: > 100 µM
TGI [8]: > 100 µM

CNS(=O)(=O)NN(C)S(=O)(=O)c1ccc(Br)cc1
TGI [1]: > 100 µM
TGI [2]: > 100 µM
TGI [3]: > 100 µM
TGI [4]: > 100 µM
TGI [6]: > 100 µM
TGI [7]: > 100 µM
TGI [8]: > 100 µM
TGI [9]: > 100 µM

COc1ccc(/C=C2\CNC/C(=C\c3ccc(OC)cc3)C2=O)cc1
TGI [1]: > 100 µM
TGI [3]: > 100 µM
TGI [4]: 81.2 µM
TGI [5]: > 100 µM
TGI [6]: 89.6 µM
TGI [7]: > 100 µM
TGI [8]: 35.2 µM
TGI [9]: > 100 µM

O=C1NC2(O)c3ccccc3C(=O)C2(O)N1c1ccccc1 (stereo unspecified)
TGI [1]: > 100 µM
TGI [4]: > 100 µM
TGI [5]: > 100 µM
TGI [6]: > 100 µM
TGI [7]: > 100 µM
TGI [8]: > 100 µM
TGI [9]: > 100 µM

COc1cc2c(cc1OC)[C@@H](C(O)c1ccccc1)NCC2 (stereo partly specified)
TGI [1]: > 100 µM
TGI [2]: > 100 µM
TGI [3]: > 100 µM
TGI [4]: > 100 µM
TGI [5]: > 100 µM
TGI [6]: > 100 µM
TGI [7]: > 100 µM
TGI [8]: > 100 µM
TGI [9]: > 100 µM

CN(C)c1ccc(/C=C2\N=C(c3ccc(N)cc3)OC2=O)cc1
TGI [1]: > 100 µM
TGI [2]: > 100 µM
TGI [3]: > 100 µM
TGI [4]: > 100 µM
TGI [5]: > 100 µM
TGI [6]: > 100 µM
TGI [7]: > 100 µM
TGI [8]: > 100 µM

CCN(CC)C(=S)N/N=C(\C)c1ccccc1O
TGI [1]: > 100 µM
TGI [2]: > 100 µM
TGI [3]: 61.4 µM
TGI [4]: 55.3 µM
TGI [6]: 59.2 µM
TGI [7]: > 100 µM
TGI [8]: > 100 µM
TGI [9]: > 100 µM

COC1=C(C(=O)OC(C)(C)C)[C@]2(C)C(C(=O)OC(C)(C)C)C(OC)=C(C(=O)OC(C)(C)C)[C@]2(C)C1C(=O)OC(C)(C)C (stereo partly specified)
TGI [1]: > 100 µM
TGI [2]: > 100 µM
TGI [3]: > 100 µM
TGI [4]: > 100 µM
TGI [5]: > 100 µM
TGI [6]: > 100 µM
TGI [7]: > 100 µM
TGI [8]: > 100 µM
TGI [9]: > 100 µM

Cc1c(C(=O)CC(=O)C(=O)Nc2cccc(C(F)(F)F)c2)[n+](=O)c2ccccc2n1[O-]
TGI [1]: 21.5 µM
TGI [2]: 35.8 µM
TGI [3]: 15.9 µM
TGI [4]: 21 µM
TGI [5]: 38.9 µM
TGI [6]: 11.8 µM
TGI [7]: 14.1 µM
TGI [8]: 6.34 µM
TGI [9]: 8.82 µM

Cc1cccc(C)c1NC(=O)C(=O)CC(=O)CO
TGI [1]: > 100 µM
TGI [2]: > 100 µM
TGI [3]: > 100 µM
TGI [4]: > 100 µM
TGI [5]: > 100 µM
TGI [6]: > 100 µM
TGI [7]: > 100 µM
TGI [8]: > 100 µM
TGI [9]: > 100 µM

COC1CC(OS(=O)(=O)c2ccc(C)cc2)C(OS(=O)(=O)c2ccc(C)cc2)C(COS(=O)(=O)c2ccc(C)cc2)O1 (stereo unspecified)
TGI [1]: 4.06 µM
TGI [3]: 12.7 µM
TGI [4]: 7.7 µM
TGI [6]: 30.9 µM
TGI [7]: 18.7 µM
TGI [8]: 6.06 µM
TGI [9]: 33.6 µM
